{"source": "patent US8809358B2", "about": "“Use of IκB-kinase inhibitors in pain therapy” (Sanofi-Aventis Deutschland GmbH, priority 2002, dated 2014)", "test_system": "Kaolin/carrageenan-induced knee joint inflammation", "experiment": "Kaolin/carrageenan-induced knee joint inflammation in the rat: reaction of spinal neurons during pressure stimulation of the knee", "type": "in vivo", "source_text": "• Zymosan-induced paw inflammation in the rat; • Parameter: paw withdrawal time or paw withdrawal threshold during thermal or mechanical stimulation of the hind paw. 2nd Model: • Kaolin/carrageenan-induced knee joint inflammation in the rat; • Parameter: reaction of spinal neurons during pressure stimulation of the knee. Model 1\nExperimental implementation: In rats which were under sodium thiopental anesthesia, the spinal canal was opened and spinal medullary neurons which processed the “pain impulses” from the knee-joint were identified. Following identification, a long-term recording, in which the activity of the nerve cell was recorded before and during the development of an acute inflammation in the knee-joint, was carried out. For this, the responses to non-noxious and noxious stimulation at the knee-joint were measured in a control period before inducing the inflammation and for several hours after inducing the inflammation.\nThe acute inflammation was induced by the intraarticular injection of a suspension (about 150 μl) of kaolin and carrageenan. In controlled experiments, only the vehicle was applied to the spinal medullary surface in order to represent the development of the hyperexcitability under control conditions. As a rule, this development of hyperexcitability took place within 2 to 4 hours and was expressed in a marked increase in the responses to non-noxious and noxious stimulation of the knee-joint (Tab. 3). […] The responses of the cell to non-noxious and noxious stimulation were then subsequently monitored as in the control experiments."}
{"smiles": "CNc1nccc(-c2cc3cc(C(=O)N[C@@H](CN(c4ccccc4)c4ccccc4)c4n[nH]c(=O)o4)ccc3[nH]2)n1", "note": "[Compound 13, N—[(S)-2-diphenylamino-1-(5-oxo-4,5-dihydro[1,3,4]oxadiazol-2-yl)ethyl]-2-(2-methylaminopyrimidin-4-yl)-1H-indole-5-carboxamide]", "values": [{"measurement": "Neuronal responses before and during knee-joint inflammation (imp/15 s), mean value", "setting": "Non-noxious stimulation at the knee-joint, about 30 μl of 10 μM solution on spinal medulla, Baseline", "result": 0.92, "unit": "imp/15 s"}, {"measurement": "Neuronal responses before and during knee-joint inflammation (imp/15 s), mean value", "setting": "Noxious stimulation at the knee-joint, about 30 μl of 10 μM solution on spinal medulla, 120-180 min after K/C injection", "result": 8.5, "unit": "imp/15 s"}, {"measurement": "Neuronal responses before and during knee-joint inflammation (imp/15 s), mean value", "setting": "Noxious stimulation at the knee-joint, about 30 μl of 10 μM solution on spinal medulla, Baseline", "result": 0.8, "unit": "imp/15 s"}, {"measurement": "development of spinal hyperexcitability compared with the controls", "setting": "rat, about 30 μl of 10 μM solution on spinal medulla", "result": "almost completely suppressed"}, {"measurement": "effect on the responses to noxious knee-joint stimulation compared with indomethacin", "setting": "rat, comparison with published data from an earlier study", "result": "more strongly expressed"}]}
